# Test results: patent US9211310B2, “Use of a Chinese medicine composition in preparing medicaments for treating secondary prevention of myocardial infarction” (TASLY PHARMACEUTICAL GROUP CO., LTD, priority 2010, dated 2015)
# Test system: patients after acute myocardial infarction
# Assay: TCM symptom score, total and single (chest pain, chest tightness, short breath, fatigue, palpitation, spontaneous perspiration, pale complexion), same clinical trial
# Format: in vivo, human
# Details: for chest pain score 0, number of patients / chest pain score 0, percent of patients / chest pain score 3, number of patients / chest pain score 3, percent of patients / chest pain score 6, number of patients / chest pain score 6, percent of patients / chest pain score 9, number of patients / chest pain score 9, percent of patients / chest tightness score 0, number of patients / chest tightness score 0, percent of patients / chest tightness score 3, number of patients / chest tightness score 3, percent of patients / chest tightness score 6, number of patients / chest tightness score 6, percent of patients / chest tightness score 9, number of patients / chest tightness score 9, percent of patients: 1 month after treatment
# Description: 3508 patients who were in accordance with the diagnostic standards of AMI for 28 days to 2 years and differentiated as Qi deficiency and blood stagnation syndrome by TCM were studied. 0.5 g Chinese medicine composition prepared by the method of EXAMPLE 1 (Coded as QSYQ) was administrated half an hour after meal, 3 times per day.
# They included the overall survival time, angina pectoris score, TCM symptom score and life quality score, where angina pectoris score, TCM symptom score and life quality score were evaluated at randomization, in 1st, 3rd, 6th, 9th, 12th month after treatment and 18th month after follow-up.
# The analysis method referred to the angina pectoris score.
# [1] = 1 month after treatment-baseline, FAS
# [2] = 1 month after treatment-baseline, PP
# [3] = 3 months after treatment-baseline, FAS
# [4] = 3 months after treatment-baseline, PP
smiles,measurement,setting,value
"CC(=O)Oc1ccccc1C(=O)O [Control group, aspirine]","change of chest pain score 0, number of patients",[1],1344
same,"change of chest pain score 0, percent of patients",[1],(78.64%)
same,"change of chest pain score 3, number of patients",[1],226
same,"change of chest pain score 3, percent of patients",[1],(13.22%)
same,"change of chest pain score 6, number of patients",[1],60
same,"change of chest pain score 6, percent of patients",[1],(3.51%)
same,"change of chest pain score 9, number of patients",[1],4
same,"change of chest pain score 9, percent of patients",[1],(0.23%)
same,"change of chest pain score −3, number of patients",[1],59
same,"change of chest pain score −3, percent of patients",[1],(3.45%)
same,"change of chest pain score −6, number of patients",[1],16
same,"change of chest pain score −6, percent of patients",[1],(0.94%)
same,"change of chest pain score −9, number of patients",[1],0
same,"change of chest pain score −9, percent of patients",[1],(0.00%)
same,"change of chest tightness score 0, number of patients",[1],1302
same,"change of chest tightness score 0, percent of patients",[1],(76.18%)
same,"change of chest tightness score 3, number of patients",[1],298
same,"change of chest tightness score 3, percent of patients",[1],(17.44%)
same,"change of chest tightness score 6, number of patients",[1],21
same,"change of chest tightness score 6, percent of patients",[1],(1.23%)
same,"change of chest tightness score 9, number of patients",[1],5
same,"change of chest tightness score 9, percent of patients",[1],(0.29%)
same,"change of chest tightness score −3, number of patients",[1],76
same,"change of chest tightness score −3, percent of patients",[1],(4.45%)
same,"change of chest tightness score −6, number of patients",[1],7
same,"change of chest tightness score −6, percent of patients",[1],(0.41%)
same,"change of chest pain score 0, number of patients",[2],1146
same,"change of chest pain score 0, percent of patients",[2],(78.49%)
same,"change of chest pain score 3, number of patients",[2],197
same,"change of chest pain score 3, percent of patients",[2],(13.49%)
same,"change of chest pain score 6, number of patients",[2],52
same,"change of chest pain score 6, percent of patients",[2],(3.56%)
same,"change of chest pain score 9, number of patients",[2],3
same,"change of chest pain score 9, percent of patients",[2],(0.21%)
same,"change of chest pain score −3, number of patients",[2],50
same,"change of chest pain score −3, percent of patients",[2],(3.42%)
same,"change of chest pain score −6, number of patients",[2],12
same,"change of chest pain score −6, percent of patients",[2],(0.82%)
same,"change of chest pain score −9, number of patients",[2],0
same,"change of chest pain score −9, percent of patients",[2],(0.00%)
same,"change of chest tightness score 0, number of patients",[2],1110
same,"change of chest tightness score 0, percent of patients",[2],(76.03%)
same,"change of chest tightness score 3, number of patients",[2],259
same,"change of chest tightness score 3, percent of patients",[2],(17.74%)
same,"change of chest tightness score 6, number of patients",[2],19
same,"change of chest tightness score 6, percent of patients",[2],(1.30%)
same,"change of chest tightness score 9, number of patients",[2],4
same,"change of chest tightness score 9, percent of patients",[2],(0.27%)
same,"change of chest tightness score −3, number of patients",[2],62
same,"change of chest tightness score −3, percent of patients",[2],(4.25%)
same,"change of chest tightness score −6, number of patients",[2],6
same,"change of chest tightness score −6, percent of patients",[2],(0.41%)
same,"chest pain score 0, number of patients",FAS,608
same,"chest pain score 0, percent of patients",FAS,(35.41%)
same,"chest pain score 3, number of patients",FAS,635
same,"chest pain score 3, percent of patients",FAS,(36.98%)
same,"chest pain score 6, number of patients",FAS,461
same,"chest pain score 6, percent of patients",FAS,(26.85%)
same,"chest pain score 9, number of patients",FAS,13
same,"chest pain score 9, percent of patients",FAS,(0.76%)
same,"chest tightness score 0, number of patients",FAS,608
same,"chest tightness score 0, percent of patients",FAS,(35.41%)
same,"chest tightness score 3, number of patients",FAS,635
same,"chest tightness score 3, percent of patients",FAS,(36.98%)
same,"chest tightness score 6, number of patients",FAS,461
same,"chest tightness score 6, percent of patients",FAS,(26.85%)
same,"chest tightness score 9, number of patients",FAS,13
same,"chest tightness score 9, percent of patients",FAS,(0.76%)
same,"chest pain score 0, number of patients",PP,515
same,"chest pain score 0, percent of patients",PP,(35.13%)
same,"chest pain score 3, number of patients",PP,537
same,"chest pain score 3, percent of patients",PP,(36.63%)
same,"chest pain score 6, number of patients",PP,406
same,"chest pain score 6, percent of patients",PP,(27.69%)
same,"chest pain score 9, number of patients",PP,8
same,"chest pain score 9, percent of patients",PP,(0.55%)
same,"chest tightness score 0, number of patients",PP,515
same,"chest tightness score 0, percent of patients",PP,(35.13%)
same,"chest tightness score 3, number of patients",PP,537
same,"chest tightness score 3, percent of patients",PP,(36.63%)
same,"chest tightness score 6, number of patients",PP,406
same,"chest tightness score 6, percent of patients",PP,(27.69%)
same,"chest tightness score 9, number of patients",PP,8
same,"chest tightness score 9, percent of patients",PP,(0.55%)
same,"change of chest pain score 0, number of patients",[3],1203
same,"change of chest pain score 0, percent of patients",[3],(70.39%)
same,"change of chest pain score 3, number of patients",[3],325
same,"change of chest pain score 3, percent of patients",[3],(19.02%)
same,"change of chest pain score 6, number of patients",[3],76
same,"change of chest pain score 6, percent of patients",[3],(4.45%)
same,"change of chest pain score 9, number of patients",[3],6
same,"change of chest pain score 9, percent of patients",[3],(0.35%)
same,"change of chest pain score −3, number of patients",[3],79
same,"change of chest pain score −3, percent of patients",[3],(4.62%)
same,"change of chest pain score −6, number of patients",[3],20
same,"change of chest pain score −6, percent of patients",[3],(1.17%)
same,"change of chest pain score −9, number of patients",[3],0
same,"change of chest pain score −9, percent of patients",[3],(0.00%)
same,"change of chest tightness score 0, number of patients",[3],1190
same,"change of chest tightness score 0, percent of patients",[3],(69.63%)
same,"change of chest tightness score 3, number of patients",[3],383
same,"change of chest tightness score 3, percent of patients",[3],(22.41%)
same,"change of chest tightness score 6, number of patients",[3],37
same,"change of chest tightness score 6, percent of patients",[3],(2.17%)
same,"change of chest tightness score 9, number of patients",[3],5
same,"change of chest tightness score 9, percent of patients",[3],(0.29%)
same,"change of chest tightness score −3, number of patients",[3],85
same,"change of chest tightness score −3, percent of patients",[3],(4.97%)
same,"change of chest tightness score −6, number of patients",[3],8
same,"change of chest tightness score −6, percent of patients",[3],(0.47%)
same,"change of chest tightness score −9, number of patients",[3],1
same,"change of chest tightness score −9, percent of patients",[3],(0.06%)
same,"change of chest pain score 0, number of patients",[4],1019
same,"change of chest pain score 0, percent of patients",[4],(70.62%)
same,"change of chest pain score 3, number of patients",[4],279
same,"change of chest pain score 3, percent of patients",[4],(19.33%)
same,"change of chest pain score 6, number of patients",[4],63
same,"change of chest pain score 6, percent of patients",[4],(4.37%)
same,"change of chest pain score 9, number of patients",[4],4
same,"change of chest pain score 9, percent of patients",[4],(0.28%)
same,"change of chest pain score −3, number of patients",[4],64
same,"change of chest pain score −3, percent of patients",[4],(4.44%)
same,"change of chest pain score −6, number of patients",[4],14
